According to PubChem BioAssay AID2060486 (Molecular Pharmacology Branch, DTP, NCI, 2025):

Test system: IGROV1 complex spheroids (HUVEC, MSC), viability % test/control
Test: Anticancer human tumor IGROV1 cell line growth inhibition [GQUAD];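 note: spheroids exposed to compounds for 7 days before readout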
Conditions: for IC50: curve of first compound; for viability, T/C: stronger effect = lower value; active = viability on the fitted dose curve at most 10% of control; inactive = the rest
Text: DNA G-quadruplex Stabilizer Agents in Combinations in Complex Spheroids
A high-throughput screen of multi-cell type tumor spheroids was designed to identify active combinations of DNA G-quadruplex stabilizer agents and targeted small molecules. Complex spheroids include a stromal component modeled by human endothelial cells (HUVEC) and fibroblasts modeled by human mesenchymal stem cells (MSCs). The concentration ranges selected for each drug and investigational agent were based upon clinically achievable concentrations if the clinical Cmax of the agent was known.
Compounds. The drugs and investigational agents: pidnarulex (CX-5461; NSC782164), APTO-253 (NSC789042), BRACO-19 (NSC847499), peposertib (NSC802822), ceralasertib (NSC780249), elimusertib (NSC800525), camonsertib (NSC841442), AZD-1390 (NSC803789), olaparib (NSC753686), talazoparib (NSC767125), ART-558 (NSC835418), sotorasib (NSC818433), MRTX-1133 (NSC836407), SN-38 (NSC673596), topotecan (NSC609699), etoposide (NSC141540), doxorubicin (NSC123127), gemcitabine (NSC613327), 5-fluorouracil (NSC19893), paclitaxel (NSC125973), vemurafenib (NSC761431), panobinostat (NSC761190), R-306465 (JNJ-16241199; NSC773264), adavosertib (NSC754352), TP-3654 (NSC805149), carboplatin (NSC241240), KSQ-4279 (NSC840948), and staurosporine (NSC755774) were obtained from the National Cancer Institute (NCI) Developmental Therapeutics Program Chemical Repository (34). The FDA-approved anticancer drug set is available from the NCI Developmental Therapeutics Program. […] The stock solutions were prepared in dimethyl sulfoxide (DMSO, Sigma-Aldrich, St. Louis, MO, cat. D2650) at 800-fold the tested concentration and stored at -70 degrees C prior to their use. All drugs and investigational agents were tested over a range starting from a high concentration at or near the clinical Cmax and decreasing in half-log increments. If the clinical Cmax for an agent had not been determined, the highest concentration tested was 10 microM.
2.3 Cell Culture. All cells were maintained in an incubator at 37 degrees C and 5% CO2 with 95% humidity. The PDC lines were cultured according to standard operating procedures established by the NCI PDMR. All PDCs were thawed and cultured in Matrigel-coated flasks prepared with a working solution of 1X Ham's F-12 nutrient mix, without supplementation (Invitrogen, cat. 11765054), 100 U/mL penicillin-streptomycin (Invitrogen, cat. 15140122), and 2.5% Matrigel (Corning Inc., cat. 354248) for the first three passages. The 857933-349-R-J2-PDC line was cultured in 6C/Colon 1B media, which includes advanced DMEM/F-12 (Thermo Fisher Scientific, cat. 12634028), 10 mM HEPES (Thermo Fisher Scientific, cat. 15630080), 1X GlutaMAX supplement (Thermo Fisher Scientific, cat. 35050061), 0.1 mg/mL primocin (InvivoGen, cat. ant-pm-2), 10% defined fetal bovine serum, heat inactivated (HyClone Laboratories Inc., cat. SH30070.03HI), 50% L-WRN conditioned media (ATCC, cat. CRL-3276), 1.25 mM N-Acetyl-L-cysteine (Sigma-Aldrich, cat. A9165), 10 mM nicotinamide (Sigma-Aldrich, cat. N0636), 1X B-27 supplement (Thermo Fisher Scientific, cat. 17504044), 1X N-2 supplement (Thermo Fisher Scientific, cat. 17502048), 10 microM Y-27632 dihydrochloride (Tocris Bioscience, cat. 1254), and 50 ng/mL human EGF recombinant protein (Thermo Fisher Scientific, cat. PHG0311). The 485176-168-R4-J1-PDC line was cultured in Panc media, which includes all 6C/Colon 1B media components plus 100 ng/mL human FGF-10 (Thermo Fisher Scientific, cat. 100-26), 500 nM SB-431542 (Selleckchem, cat. S1067), and gastrin (Tocris, cat. 3006).
[…]

[1] = second compound 0.0316 µM, first compound 0.0316 µM
[2] = second compound 0.0316 µM, first compound 0.1 µM
[3] = second compound 0.0316 µM, first compound 0.316 µM
[4] = second compound 0.0316 µM, first compound 1 µM
[5] = second compound 0.0316 µM, first compound 3.16 µM
[6] = second compound 0.0316 µM, first compound 10 µM
[7] = second compound 0.1 µM, first compound 0.0316 µM
[8] = second compound 0.1 µM, first compound 0.1 µM
[9] = second compound 0.1 µM, first compound 0.316 µM
[10] = second compound 0.1 µM, first compound 1 µM
[11] = second compound 0.1 µM, first compound 3.16 µM
[12] = second compound 0.1 µM, first compound 10 µM
[13] = second compound 0.316 µM, first compound 0.0316 µM
[14] = second compound 0.316 µM, first compound 0.1 µM
[15] = second compound 0.316 µM, first compound 0.316 µM
[16] = second compound 0.316 µM, first compound 1 µM
[17] = second compound 0.316 µM, first compound 3.16 µM
[18] = second compound 0.316 µM, first compound 10 µM
[19] = second compound 1 µM, first compound 0.0316 µM
[20] = second compound 1 µM, first compound 0.1 µM
[21] = second compound 1 µM, first compound 0.316 µM
[22] = second compound 1 µM, first compound 1 µM
[23] = second compound 1 µM, first compound 3.16 µM
[24] = second compound 1 µM, first compound 10 µM
[25] = second compound 3.16 µM, first compound 0.0316 µM
[26] = second compound 3.16 µM, first compound 0.1 µM
[27] = second compound 3.16 µM, first compound 0.316 µM
[28] = second compound 3.16 µM, first compound 1 µM
[29] = second compound 3.16 µM, first compound 3.16 µM
[30] = second compound 3.16 µM, first compound 10 µM
[31] = second compound 10 µM, first compound 0.0316 µM
[32] = second compound 10 µM, first compound 0.1 µM
[33] = second compound 10 µM, first compound 0.316 µM
[34] = second compound 10 µM, first compound 1 µM
[35] = second compound 10 µM, first compound 3.16 µM
[36] = second compound 10 µM, first compound 10 µM

CC1COCCN1c1cc(C2(O)CC3CCC(C2)O3)c2cnn(-c3ccn[nH]3)c2n1 (stereo not drawn) + CN(C)c1ccc(Nc2c3ccc(NC(=O)CCN4CCCC4)cc3nc3cc(NC(=O)CCN4CCCC4)ccc23)cc1
active: viability, T/C [3] 7.64% | viability, T/C [4] 5.68% | viability, T/C [5] 2.88% | viability, T/C [6] 1.63% | viability, T/C [9] 9.08% | viability, T/C [10] 5.11% | viability, T/C [11] 3.48% | viability, T/C [12] 1.19% | viability, T/C [15] 9.25% | viability, T/C [16] 4.51% | viability, T/C [17] 4.65% | viability, T/C [18] 1.93% | viability, T/C [21] 8.86% | viability, T/C [22] 5.16% | viability, T/C [23] 4.18% | viability, T/C [24] 1.58% | viability, T/C [27] 8.17% | viability, T/C [28] 4.73% | viability, T/C [29] 4% | viability, T/C [30] 1.78% | viability, T/C [33] 5.93% | viability, T/C [34] 4.42% | viability, T/C [35] 3.55% | viability, T/C [36] 1.05%
inactive: viability, T/C [1] 54.8% | viability, T/C [2] 20% | viability, T/C [7] 45% | viability, T/C [8] 22.7% | viability, T/C [13] 45.8% | viability, T/C [14] 19% | viability, T/C [19] 42.6% | viability, T/C [20] 17.5% | viability, T/C [25] 38.7% | viability, T/C [26] 13.4% | viability, T/C [31] 17% | viability, T/C [32] 10.2%
36.8 nM: IC50 (second compound 0.0316 µM)
< 31.6 nM: IC50 (second compound 0.1 µM) | IC50 (second compound 0.316 µM) | IC50 (second compound 1 µM) | IC50 (second compound 3.16 µM) | IC50 (second compound 10 µM)

CC1COCCN1c1cc(C2(S(C)(=N)=O)CC2)nc(-c2ccnc3[nH]ccc23)n1 (stereo not drawn) + CN(C)c1ccc(Nc2c3ccc(NC(=O)CCN4CCCC4)cc3nc3cc(NC(=O)CCN4CCCC4)ccc23)cc1
inactive: viability, T/C [1] 83.5% | viability, T/C [2] 76.6% | viability, T/C [3] 86.7% | viability, T/C [4] 49.9% | viability, T/C [5] 16.1% | viability, T/C [6] 7.65% | viability, T/C [7] 99.2% | viability, T/C [8] 89.5% | viability, T/C [9] 76.3% | viability, T/C [10] 52.7% | viability, T/C [11] 14% | viability, T/C [13] 83.7% | viability, T/C [14] 103% | viability, T/C [15] 76.8% | viability, T/C [16] 51.4% | viability, T/C [17] 13.7% | viability, T/C [19] 72.4% | viability, T/C [20] 93% | viability, T/C [21] 69.8% | viability, T/C [22] 52.5% | viability, T/C [23] 12.1% | viability, T/C [25] 65.5% | viability, T/C [26] 84% | viability, T/C [27] 79.7% | viability, T/C [28] 49.4% | viability, T/C [29] 16.5% | viability, T/C [31] 60.6% | viability, T/C [32] 54.4% | viability, T/C [33] 40.4% | viability, T/C [34] 30.5% | viability, T/C [35] 15.2%
979 nM: IC50 (second compound 0.316 µM)
1030 nM: IC50 (second compound 3.16 µM)
141 nM: IC50 (second compound 10 µM)
active: viability, T/C [12] 5.88% | viability, T/C [18] 6.28% | viability, T/C [24] 6.36% | viability, T/C [30] 6.55% | viability, T/C [36] 7.14%
1020 nM: IC50 (second compound 0.0316 µM) | IC50 (second compound 1 µM)
949 nM: IC50 (second compound 0.1 µM)

COc1ccc([C@@H](O)c2cc(-c3ncnc4cc(N5CCOCC5)ccc34)c(F)cc2Cl)nn1 + CN(C)c1ccc(Nc2c3ccc(NC(=O)CCN4CCCC4)cc3nc3cc(NC(=O)CCN4CCCC4)ccc23)cc1
inactive: viability, T/C [1] 89.1% | viability, T/C [2] 89.1% | viability, T/C [3] 94.4% | viability, T/C [4] 62% | viability, T/C [5] 20.7% | viability, T/C [7] 88.4% | viability, T/C [8] 72.3% | viability, T/C [9] 74% | viability, T/C [10] 40.1% | viability, T/C [11] 14.7% | viability, T/C [13] 93.1% | viability, T/C [14] 82.9% | viability, T/C [15] 71% | viability, T/C [16] 41.8% | viability, T/C [17] 17.6% | viability, T/C [19] 63.1% | viability, T/C [20] 82.2% | viability, T/C [21] 74% | viability, T/C [22] 37.1% | viability, T/C [25] 69.4% | viability, T/C [26] 82.5% | viability, T/C [27] 49.1% | viability, T/C [28] 21.6% | viability, T/C [31] 56.6% | viability, T/C [32] 52.6% | viability, T/C [33] 30.4% | viability, T/C [34] 13.7%
659 nM: IC50 (second compound 1 µM)
718 nM: IC50 (second compound 0.316 µM)
348 nM: IC50 (second compound 3.16 µM)
107 nM: IC50 (second compound 10 µM)
709 nM: IC50 (second compound 0.1 µM)
1420 nM: IC50 (second compound 0.0316 µM)
active: viability, T/C [6] 7.56% | viability, T/C [12] 6.35% | viability, T/C [18] 6.18% | viability, T/C [23] 11.4% | viability, T/C [24] 5.01% | viability, T/C [29] 8.01% | viability, T/C [30] 5.13% | viability, T/C [35] 5.94% | viability, T/C [36] 4.92%

O=C(c1cc(Cc2n[nH]c(=O)c3ccccc23)ccc1F)N1CCN(C(=O)C2CC2)CC1 + CN(C)c1ccc(Nc2c3ccc(NC(=O)CCN4CCCC4)cc3nc3cc(NC(=O)CCN4CCCC4)ccc23)cc1
3870 nM: IC50 (second compound 0.0316 µM)
4880 nM: IC50 (second compound 1 µM)
4570 nM: IC50 (second compound 0.1 µM)
< 31.6 nM: IC50 (second compound 10 µM)
inactive: viability, T/C [1] 87.2% | viability, T/C [2] 81.6% | viability, T/C [3] 67.3% | viability, T/C [4] 67.9% | viability, T/C [5] 61.6% | viability, T/C [6] 22.1% | viability, T/C [7] 92.9% | viability, T/C [8] 87.2% | viability, T/C [9] 83.9% | viability, T/C [10] 74.8% | viability, T/C [11] 67.6% | viability, T/C [12] 20.3% | viability, T/C [13] 66.1% | viability, T/C [14] 87.3% | viability, T/C [15] 78.4% | viability, T/C [16] 73.3% | viability, T/C [17] 54.3% | viability, T/C [18] 24.4% | viability, T/C [19] 62.2% | viability, T/C [20] 90.4% | viability, T/C [21] 86.9% | viability, T/C [22] 71.7% | viability, T/C [23] 66.1% | viability, T/C [24] 24.6% | viability, T/C [25] 58.3% | viability, T/C [26] 87.8% | viability, T/C [27] 78.6% | viability, T/C [28] 51.9% | viability, T/C [29] 49.9% | viability, T/C [30] 20.7% | viability, T/C [31] 50.9% | viability, T/C [32] 44.6% | viability, T/C [33] 38.4% | viability, T/C [34] 37.6% | viability, T/C [35] 30.1% | viability, T/C [36] 11.8%
3730 nM: IC50 (second compound 0.316 µM)
2360 nM: IC50 (second compound 3.16 µM)
